Reference: patent publication US8378117B2 (priority 2005, dated 2013)

Assays:
CB1 receptor [1] = target: T1, CB1 receptor (Homo sapiens, UniProt P21554); experiment: Binding assay for CB1 agonists or inverse agonists (SK-N-MC membranes, [3H]-CP-55,940); conditions: for inhibition at 1 µM: read-out: CB1 receptor binding percent inhibition, test concentration 1 μM (footnote 1)
T1 construct: expressed in transfected cells
Procedure, shortened: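 Membranes from SK-N-MC cells stably expressing human CB1 incubated with compound and [3H]-CP-55,940 ([…]) for 90 min at 30° C in Tris-HCl pH 7.5, MgCl2, EDTA, fatty-acid-free BSA. Non-specific binding defined with 10 uM WIN 55,212; filtration, scintillation count; IC50 by linear regression.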

CB2 receptor = target: T2, CB2 receptor (Homo sapiens, UniProt P34972); experiment: Binding assay for CB2 agonists or inverse agonists (SK-N-MC membranes, [3H]-CP-55,940)
T2 construct: expressed in transfected cells
Procedure, shortened: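 Membranes from SK-N-MC cells stably expressing human CB2 were incubated with radioligand and test compounds for 90 min at 30 °C in Tris-HCl buffer, pH 7.5, with MgCl2, EDTA and fatty-acid-free BSA. Filter-bound radioactivity was counted; IC50 was derived by linear regression of percent inhibition.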

Male CD-1 mice = experiment: Oil of mustard induced colitis model; assay type: in vivo
Description: In the distal colon, the oil of mustard colitis model is characterized by a discontinuous pattern of mucosal epithelial damage, submucosal edema, infiltration of inflammatory cells (including macrophages, neutrophils and lymphocytes) into the mucosa and submucosa, increased wet weight of the colon, shrinkage of the colon length, diarrhea and apparent inflammation (see, Kimball E. S., Palmer J. M., D'Andrea M. R., Homby P. J. and Wade P. R., Acute colitis induction by oil of mustard results in later development of an IBS-like accelerated upper GI transit in mice, Am. J Physiol. Gastrointest. Liver Physiol., 2005, 288: G 1266-1273).
Male CD-1 mice (Charles River Laboratories, Kingston, N.C.) (9-11 weeks old) and fresh oil of mustard (OM) (allyl isothiocyanate, 98% purity, Sigma-Aldrich St. Louis, Mo.) were used.
The mice (9 per treatment group) were briefly anesthetized with ketamine/xylasine (Sigma, St. Louis, Mo.) and a solution of 0.5% OM in 30% ethanol (50 μL) was administered intracolonically (to a depth of 4 cm) via syringe (equipped with a ball-tipped 22 G needle).
A test compound was orally administered one day prior to colitis induction for assessing a prophylactic regimen or one day post-induction for assessing a therapeutic regimen. A test compound was orally administered daily thereafter. Two days after OM administration, the last test compound dose was administered.
Three days after OM administration, the animals were sacrificed. The colons were resected, examined for signs of inflammation, weighed after removing fecal contents and the length from the aboral end of the cecum to the anus was measured. The fecal contents were examined for signs of diarrhea. The distal colon between the 1st and the 4th centimeter was removed and placed in 10% neutral buffered formalin for histological analysis.
The macroscopic observations of colon inflammation (a measure of colon damage), colon weight and length and stool consistency and appearance were assigned a score and used to evaluate colitis severity.
The four observation scores for each colon were combined, whereby a combined score of 0 represents a normal colon and a combined score of 15 represents a maximally affected colon. Statistical analyses were performed in Graphpad Prism 4.0 using ANOVA.
Histological analyses of tissues consisted of staining paraffin-embedded tissue sections with hematoxylin-eosin dye. The tissues were examined using light microscopy by an investigator who was blinded to the sample groups.
The microscopic observations of epithelial damage, cellular infiltration and damage or alteration of smooth muscle architecture (a measure of muscle damage) were assigned a score and used to evaluate colitis severity.
The scores for each colon were combined, whereby a combined score of 0 represents a normal colon and a combined score of 9 represents a maximally affected colon. Statistical analyses were performed in Graphpad Prism 4.0 using ANOVA.
The Macroscopic Score and Microscopic Score results for each treatment group in the prophylactic and therapeutic regimens were each combined into a mean score and expressed as % inhibition of colitis (% Inh). Test (#) represents the number of experiments at each dose level.

CB1 receptor [2] = target: T1, CB1 receptor; experiment: cell-based; conditions: CB1 Receptor Functional Agonist EC50, SK-N-MC cells, forskolin induced β-galactosidase activity
Procedure, shortened: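 SK-N-MC cells stably co-expressing human CB1 and a CRE-β-galactosidase reporter; forskolin-induced β-gal activity measured after compound treatment, as % of vehicle-treated cells (100%). EC50 by linear regression from concentration series; otherwise % change at a single concentration.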

[3] = test concentration 0.2 μM (footnote 2), 0.2 µM
[4] = Prophylactic Regimen, 2.5 mg/kg oral
[5] = Prophylactic Regimen, 5 mg/kg oral
[6] = Therapeutic Regimen, 5 mg/kg oral

T2 sequence (P34972 whole entry): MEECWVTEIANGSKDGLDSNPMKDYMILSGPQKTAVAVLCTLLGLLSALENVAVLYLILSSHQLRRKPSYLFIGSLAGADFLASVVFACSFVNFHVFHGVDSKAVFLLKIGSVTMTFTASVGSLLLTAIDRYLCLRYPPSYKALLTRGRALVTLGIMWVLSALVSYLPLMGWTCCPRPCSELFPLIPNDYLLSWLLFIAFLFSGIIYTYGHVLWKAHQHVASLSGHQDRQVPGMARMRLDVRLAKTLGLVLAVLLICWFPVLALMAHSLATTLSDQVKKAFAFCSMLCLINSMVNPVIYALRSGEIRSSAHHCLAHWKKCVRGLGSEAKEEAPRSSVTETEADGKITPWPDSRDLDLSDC
T1 sequence (P21554 whole entry): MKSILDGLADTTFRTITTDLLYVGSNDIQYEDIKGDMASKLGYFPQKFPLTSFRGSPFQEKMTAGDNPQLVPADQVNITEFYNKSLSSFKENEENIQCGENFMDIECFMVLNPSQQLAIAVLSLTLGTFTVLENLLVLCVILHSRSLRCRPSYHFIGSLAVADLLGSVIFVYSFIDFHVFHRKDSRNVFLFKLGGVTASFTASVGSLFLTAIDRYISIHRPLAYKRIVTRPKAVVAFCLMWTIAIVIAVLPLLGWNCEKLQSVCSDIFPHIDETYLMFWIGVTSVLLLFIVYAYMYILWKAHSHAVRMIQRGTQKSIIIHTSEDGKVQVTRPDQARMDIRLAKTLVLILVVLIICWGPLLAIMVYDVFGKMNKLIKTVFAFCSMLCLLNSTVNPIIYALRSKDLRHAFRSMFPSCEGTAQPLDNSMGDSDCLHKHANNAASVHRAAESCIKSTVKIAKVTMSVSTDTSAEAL

## O=C(N[C@@H](CO)c1ccccc1)c1n[nH]c2c1CCCCC2Cc1cccc(Cl)c1 (stereo in doubt) [Cpd 228, (8S*)-8-(3-chloro-benzyl)-1,4,5,6,7,8-hexahydro-cycloheptapyrazole-3-carboxylic acid [(1R)-2-hydroxy-1-phenyl-ethyl]-amide]
CB1 receptor [1]; [3]
  CB1 receptor binding percent inhibition: ^(2)0%
CB2 receptor; [3]
  CB2 receptor binding percent inhibition: ^(2)45%
Male CD-1 mice; Therapeutic Regimen, 5 mg/kg oral, 5 mg/kg
  % Inh (Macro), % inhibition of colitis, macroscopic score: 51.7 ± 13.2%

## C[C@H](NS(=O)(=O)/C=C/c1n[nH]c2c1CCCCC2Cc1cccc(F)c1)c1ccccc1 (stereo partly drawn) [Cpd 96, (2E)-2-[8-(3-fluoro-benzyl)-1,4,5,6,7,8-hexahydro-cycloheptapyrazol-3-yl]-ethenesulfonic acid [(1S)-1-phenyl-ethyl]-amide]
CB1 receptor [1]
  inhibition at 1 µM: 0%
CB2 receptor; test concentration 0.015 μM (footnote 7), read-out: CB2 receptor binding percent inhibition
  inhibition at 0.015 µM: 50%
CB2 receptor; test concentration 1 μM (footnote 1), read-out: CB2 receptor binding percent inhibition
  inhibition at 1 µM: 94%
CB2 receptor; test concentration not stated
  CB2 receptor binding percent inhibition: 72%
Male CD-1 mice; [4]
  % Inh (Macro), % inhibition of colitis, macroscopic score: 8.0 ± 16.7%
Male CD-1 mice; [5]
  % Inh (Macro), % inhibition of colitis, macroscopic score: 10.8 ± 13.4%
Male CD-1 mice; [6]
  % Inh (Macro), % inhibition of colitis, macroscopic score: 7.6 ± 11.5%

## C[C@H](NS(=O)(=O)/C=C/c1n[nH]c2c1CCCCC2Cc1ccc(F)cc1)c1ccccc1 (stereo partly drawn) [Cpd 108, (2E)-2-[8-(4-fluoro-benzyl)-1,4,5,6,7,8-hexahydro-cycloheptapyrazol-3-yl]-ethenesulfonic acid [(1S)-1-phenyl-ethyl]-amide]
CB1 receptor [1]; read-out: CB1 receptor binding percent inhibition, test concentration 0.5 μM (footnote 10)
  inhibition at 0.5 µM: 33%
CB1 receptor [1]
  inhibition at 1 µM: 55%
CB1 receptor [1]; test concentration not stated
  CB1 receptor binding percent inhibition: 44%
CB2 receptor; test concentration not stated
  CB2 receptor binding percent inhibition: 100%
Male CD-1 mice; [4]
  % Inh (Macro), % inhibition of colitis, macroscopic score: 51.2 ± 19.1%
Male CD-1 mice; [5]
  % Inh (Macro), % inhibition of colitis, macroscopic score: 13.4 ± 13.3%

## C[C@H](NC(=O)c1nn(-c2cc(Cl)ccc2Cl)c2c1CCCC/C2=C\c1ccc(Cl)cc1)c1ccccc1 [Cpd 198, (8E)-8-(4-chloro-benzylidene)-1-(2,5-dichloro-phenyl)-1,4,5,6,7,8-hexahydro-cycloheptapyrazole-3-carboxylic acid [(1S)-1-phenyl-ethyl]-amide]
CB1 receptor [1]; Cannabinoid CB1 Receptor Binding IC50, calculated by linear regression from percent inhibition at various test concentrations
  IC50: 20 nM
CB1 receptor [1]; read-out: CB1 receptor binding percent inhibition
  inhibition at 0.2 µM: 87%
CB2 receptor; read-out: CB2 receptor binding percent inhibition, test concentration 0.2 μM (footnote 2)
  inhibition at 0.2 µM: 68%
CB1 receptor [2]
  EC50: 20 nM
Male CD-1 mice; [6]
  % Inh (Macro), % inhibition of colitis, macroscopic score: 41.0 ± 17%
